# Measurements: US9938335B2, “Glucagon and GLP-1 co-agonist compounds” (Eli Lilly and Company, priority 2015, dated 2018)
# Like-named read-outs stand apart in the source and are kept apart here. Starred links: 1 amine or outer side, 2 acyl side, 3 side chain; linkers in the order of their positions; H or OH if unused. Non-standard residues stand in square brackets, D forms with d. Residues, ends and D or L forms follow the SMILES beside them. Groups on a side chain read outwards from the residue. *: point of attachment. C18 diacid = O=C(O)CCCCCCCCCCCCCCCCC(=O)*; γGlu = O=C(O)[C@H](CCC(=O)[*:2])N[*:1]; AEEA = NCCOCCOCC(=O)O; Aib = CC(C)(N)C(=O)O
# What was measured:
# [1] = Viscosity (Rheosense mVroc Viscometer); type: physicochemical; conditions: approximately 10 mg/mL peptide in 10 mM Tris + 3 mg/mL m-cresol at pH 8.0; 25° C.; shear rate 1934 s^−1
# Procedure: Viscosity of compounds of the present invention is measured in a Rheosense mVroc Viscometer with the following settings:
# (a) Syringe size: 500 μL syringe
# (b) Flow Rate: 100 μL/min flow rate
# (c) Average Temperature: 25° C.
# (d) Shear Rate: 1934 s^−1
# Dry powder (compound) is weighed out, dissolved in water as a cloudy precipitate, and titrated to approximately pH 8.0 with 1N NaOH. The solution is sonicated and swirled by hand until peptide is in solution. Samples are sterile filtered (0.22 μm PVDF filters). Samples are then analyzed by UV-Vis to assess stock solution concentrations. Solutions are diluted to final concentration using 3× m-cresol in 10 mM Tris pH 8.0 buffer to final concentrations of approximately 10 mg/mL peptide by weight in 10 mM Tris+3 mg/mL m-cresol at pH 8.0. Samples were filtered through 0.22 μm filters immediately prior to viscosity analysis. 25 μL of sample are removed to verify concentration by RP-HPLC before and after analysis.
# Water and buffer control samples are measured before and after each sample is analyzed. The instrument is washed with buffer (3×) in between analysis of each sample. The samples are loaded into individual syringes and analyzed. The first measurement is not included in the final calculation to allow for equilibration with the system. Samples are then analyzed in triplicate (n=3).
# The viscosity of Compounds 1-4 was measured essentially as described in this assay.
# rat GLP-1-R = target: T1, rat GLP-1-R (Rattus norvegicus, UniProt P32301); assay: Functional activation of the rat GLP-1-R in insulinoma cell line INS1 832-3 (cAMP); type: cell-based
# T1 construct: stimulating cAMP production at the endogenous GLP-1 receptors; endogenous in cells; host or cells: INS1 832-3 rat insulinoma cells
# T1 sequence (P32301 22-463): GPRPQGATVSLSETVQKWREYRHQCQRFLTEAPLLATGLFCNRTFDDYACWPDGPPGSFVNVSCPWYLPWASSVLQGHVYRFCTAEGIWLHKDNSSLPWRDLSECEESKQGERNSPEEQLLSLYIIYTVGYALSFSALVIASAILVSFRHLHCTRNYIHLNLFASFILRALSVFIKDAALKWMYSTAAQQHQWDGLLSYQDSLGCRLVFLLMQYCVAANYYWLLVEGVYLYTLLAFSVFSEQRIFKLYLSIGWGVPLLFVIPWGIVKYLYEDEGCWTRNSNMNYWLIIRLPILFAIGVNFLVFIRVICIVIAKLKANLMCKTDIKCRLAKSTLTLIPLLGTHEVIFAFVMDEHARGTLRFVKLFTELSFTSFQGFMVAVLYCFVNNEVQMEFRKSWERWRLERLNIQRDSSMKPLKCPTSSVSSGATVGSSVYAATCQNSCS
# Procedure: Performance of the assay requires detachment of the cells from culture flasks using Enzyme Free Cell Stripper and pelleted by centrifugation at 1000 rpm for 5 minutes at room temperature. […] After 2 hours starvation, cells are treated with compound by adding 10 μl of 5× compound dilutions into the cell plates (n=2) and incubated in a 37° C., 5% CO2 incubator for 30 minutes.
# cAMP concentration is measured using a HTRF cAMP assay kit (Cisbio): cAMP-d2 conjugate in cell lysis buffer (20 μl) followed by the antibody anti-cAMP-Eu^3+-Cryptate, also in cell lysis buffer (20 μl), is added to the cells of the plate.
# The assay is performed with duplicated plates.
# [2] = Pharmacokinetics in cynomolgus monkeys; type: in vivo; conditions: Table 8: single SC 50 nmol/kg; for Cmax: read-out: Cmax
# Procedure: The compounds are administered by a single intravenous or subcutaneous dose of 50 nmole/kg or 250 nmole/kg.
# The plasma concentrations of compounds are determined by a LC/MS method. Briefly, a compound of the present invention is extracted from 100% monkey plasma (25 μl) using acetonitrile. Two distinct layers are formed upon centrifugation with the compound located in the liquid layer. An 80 μl aliquot of the supernatant was transferred to a 96-well plate, diluted with 150 μl of water and 25 μl of formic acid. The diluted sample (10 μl) was injected onto a Supelco Analytical Discovery BIO Wide Pore C5-3, 5 cm×1 mm, 3 um column. The column effluent is directed into a Thermo Q-Exactive mass spectrometer for detection and quantitation.
# DIO mice (C57BL/6) = assay: Effects on energy expenditure in DIO mice (indirect calorimetry); type: in vivo, mouse; conditions: for Cumulative Heat (Kcal/kg lean mass/3 day): test article 15 nmol/kg, semaglutide 60 nmol/kg sc every three days
# Procedure: Seven to eight months old male DIO mice (C57BL/6) weighing 45-50 g are used in this study to assess the effect of compounds of the present invention on energy metabolism. Animals are individually housed in a temperature-controlled (24° C.) facility with a 12 hour light/dark cycle (lights on 22:00), and free access to food (TD95217)(Teklad) and water. After 2 weeks acclimation to the facility, mice are randomized to treatment groups (N=6/group) based on body weight so each group has similar starting mean body weight. Animals are placed in a PhenoMaster/LabMaster calorimeter (TSE Systems, Chesterfield, Mo.) for 8 days of acclimation.
# Heat and […] (RER) are measured by indirect calorimetry as described using an open-circuit calorimetry system. RER is the ratio of the volume of CO2 produced (VCO2) to the volume of O2 consumed (VO2). Heat is calculated with lean body weight considered. The energy expenditure is kcal/kg/3 day and expressed as mean±SEM of 6 mice per group. Statistical significance is assessed by two-way ANOVA followed by Tukey's multiple comparison test.
# hGLP-1-R = hGLP-1-R (Homo sapiens, UniProt P43220); assay: Functional hGLP-1-R assay (cAMP HTRF, HEK-293 clonal cell line); type: cell-based; parameters: expressed in transfected cells; host or cells: HEK-293 clonal cell line over-expressing the receptor; conditions: for Emax: HEK293; for EC50: cAMP, 60 minute incubation, 0.25% FBS, 0.05% BSA, geometric mean, read-out: Human GLP-1-R EC50, nM ± SEM (n)
# Procedure: After a 60 minute incubation at room temperature, the resulting increase in intracellular cAMP (adenosine 3′,5′-cyclic monophosphate) is quantitatively determined using the CisBio cAMP Dynamic 2 HTRF Assay Kit (62AM4PEJ). cAMP levels within the cell are detected by adding the cAMP-d2 conjugate in cell lysis buffer (20 μl) followed by the antibody anti-cAMP-Eu^3+-Cryptate, also in cell lysis buffer (20 μl).
# A relative EC50 value and percent top (Emax) are derived by non-linear regression analysis using the percent maximal response vs. the concentration of peptide added, fitted to a four-parameter logistic equation (Genedata Screener®).
# Means for EC50 are expressed as Geometric means±standard error of the mean (SEM) with the number of replicates (n) indicated in parenthesis. Means for Emax are expressed as the arithmetic mean±standard error. ND signifies that agonist activity was not detected.
# hGcg-R = hGcg-R (Homo sapiens, UniProt P47871); assay: Functional activation of hGcg-R in primary human hepatocytes (cAMP); type: cell-based; parameters: stimulating cAMP production at the endogenous Gcg receptors; endogenous in cells; host or cells: cryopreserved primary human hepatocytes
# Procedure: Primary human hepatocytes are used to determine functional activity of compounds on stimulating cAMP production at the endogenous Gcg receptors. Vials of human primary hepatocytes are frozen in a liquid nitrogen tank. Upon removal, vials are thawed immediately in a water bath having a temperature of 37° C. Cell suspension is then transferred to 50 ml CHRM (Gibco/Life Technologies cat#CM7000 Cryopreserved Hepatocyte Recovery Medium).
# The cell suspension is centrifuged at 1,000×g for 10 min. Cell pellets are resuspended in 5 ml of Plating Media after removing the CHRM by aspiration. The Plating Media is prepared by adding entire contents of CM3000 Supplement Packs to 500 ml Williams Media (Gibco/Life Technologies), followed by sterile filtration through a 0.22 μm membrane.
# The cell density is counted on hemocytometer, by adding 100 μl of cell suspension to 100 μl Trypan Blue (HyClone Trypan Blue 0.04%, catalog number SV30084.01). The cell suspension is further diluted in the Plating Media to the final cell density of 0.8×10^6 cells per ml. […] 65 ml of the cell suspension is then added to each well of the Collagen coated 96-well plate to final cell density 50,000 cells per well. The cell plate is incubated in a 37° C., 5% CO2 incubator for 3-4 hours.
# After 3-4 hours incubation, the media is aspirated and replaced with 100 ml Maintenance Media. The maintenance media is prepared by adding entire contents of CM4000 Supplement Packs to 500 ml Williams Media (Gibco/Life Technologies), followed by sterile filtration through a 0.22 μm membrane. The cell plate is returned to the 37° C., 5% CO2 incubator overnight in preparation for the cAMP assay.
# The cell plate is removed from the incubator and the media is removed by gentle aspiration without disturbing the cell monolayer.
# cAMP concentration is measured using a HTRF cAMP assay kit (Cisbio): cAMP-d2 conjugate in cell lysis buffer (40 μl) followed by the antibody anti-cAMP-Eu^3+-Cryptate, also in cell lysis buffer (40 μl), is added to the cells of the plate.
# [3] = male, cynomolgus monkey, plasma, sc, 50 nmol/kg, individual animals
# [4] = male, cynomolgus monkey, plasma, sc, 50 nmol/kg, mean
# Sequence of hGcg-R (P47871 26-477): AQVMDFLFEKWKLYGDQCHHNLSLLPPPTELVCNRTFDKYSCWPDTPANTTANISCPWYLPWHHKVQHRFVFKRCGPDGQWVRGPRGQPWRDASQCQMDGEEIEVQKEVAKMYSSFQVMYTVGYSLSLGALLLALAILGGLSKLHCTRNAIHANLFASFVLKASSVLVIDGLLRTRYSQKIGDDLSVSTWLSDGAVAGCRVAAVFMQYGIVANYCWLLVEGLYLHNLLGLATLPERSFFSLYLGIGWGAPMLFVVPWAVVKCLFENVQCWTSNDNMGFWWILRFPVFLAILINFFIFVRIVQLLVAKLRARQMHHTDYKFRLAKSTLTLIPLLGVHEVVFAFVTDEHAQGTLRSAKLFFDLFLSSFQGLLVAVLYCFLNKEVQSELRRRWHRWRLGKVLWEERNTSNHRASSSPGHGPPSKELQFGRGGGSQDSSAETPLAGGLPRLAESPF
# Sequence of hGLP-1-R (P43220 24-463): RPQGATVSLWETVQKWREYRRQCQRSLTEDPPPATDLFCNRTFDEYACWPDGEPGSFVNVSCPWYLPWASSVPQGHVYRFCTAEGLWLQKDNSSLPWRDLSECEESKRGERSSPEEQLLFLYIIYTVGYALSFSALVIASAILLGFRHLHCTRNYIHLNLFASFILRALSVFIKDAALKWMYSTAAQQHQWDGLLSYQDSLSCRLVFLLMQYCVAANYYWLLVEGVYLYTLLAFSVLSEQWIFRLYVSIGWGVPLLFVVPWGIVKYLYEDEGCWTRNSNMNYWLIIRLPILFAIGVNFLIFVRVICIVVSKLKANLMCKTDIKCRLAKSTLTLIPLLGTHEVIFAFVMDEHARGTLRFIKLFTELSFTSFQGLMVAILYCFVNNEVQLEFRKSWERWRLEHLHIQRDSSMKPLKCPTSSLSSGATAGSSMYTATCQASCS
compound,measurement,setting,value
CC(C)C[C@H](NC(=O)[C@H](CC(C)C)NC(=O)[C@H](Cc1c[nH]c2ccccc12)NC(=O)[C@H](CCC(=O)O)NC(=O)[C@@H](NC(=O)[C@H](Cc1ccccc1)NC(=O)[C@H](CCC(=O)O)NC(=O)[C@H](CCCCNC(=O)COCCOCCNC(=O)COCCOCCNC(=O)CC[C@H](NC(=O)CCCCCCCCCCCCCCCCC(=O)O)C(=O)O)NC(=O)[C@H](C)NC(=O)[C@H](CCCCN)NC(=O)[C@H](CCCCN)NC(=O)[C@H](CCC(=O)O)NC(=O)[C@H](CC(=O)O)NC(=O)[C@H](CC(C)C)NC(=O)[C@H](Cc1ccc(O)cc1)NC(=O)[C@H](CCCCN)NC(=O)[C@H](CO)NC(=O)[C@H](Cc1ccc(O)cc1)NC(=O)[C@H](CC(=O)O)NC(=O)[C@H](CO)NC(=O)[C@@H](NC(=O)[C@H](Cc1ccccc1)NC(=O)[C@@H](NC(=O)CNC(=O)[C@H](CCC(N)=O)NC(=O)C(C)(C)NC(=O)[C@@H](N)Cc1c[nH]cn1)[C@@H](C)O)[C@@H](C)O)C(C)C)C(=O)N[C@@H](CCC(=O)O)C(=O)NCC(=O)NCC(=O)N1CCC[C@H]1C(=O)N[C@@H](CO)C(=O)N[C@@H](CO)C(=O)NCC(N)=O [Compound 1],500 μL syringe Viscosity,[1],1.06 cP or mPa-s
same,EC50,"rat GLP-1-R; INS1 832-3 cells, cAMP, 30 minutes",26.1 nM
same,cAMP production,"rat GLP-1-R; INS1 832-3 cells, data not shown",increased cAMP production in a dose-dependent manner
same,Emax,"rat GLP-1-R; INS1, percent of maximal response with native GLP-1 peptide at 300 nM",112%
same,AUC(0-inf),[2]; individual animals,21.672 µM·h
same,CL/F,[2]; individual animals,2.31 mL/h/kg
same,Cmax,[2]; individual animals,253 nM
same,T1/2,"[2]; male cynomolgus monkeys, individual animals",47 h
same,Tmax,[2]; [3],12 h
same,AUC(0-inf),"[2]; male, cynomolgus monkey, plasma, sc, 50 nmol/kg, individual animals, read-out: AUC0-inf",24.9 µM·h
same,CL/F,"[2]; male, cynomolgus monkey, plasma, sc, 50 nmol/kg, individual animals, read-out: CL/F (converted)",2.01 mL/h/kg
same,Cmax,[2]; [3],236 nM
same,half-life,"[2]; male, cynomolgus monkey, plasma, sc, 50 nmol/kg, male cynomolgus monkeys, individual animals",67 h
same,Tmax,[2]; [4],~12 h
same,half-life,[2]; [4],57 h
same,AUC(0-inf),"[2]; male, cynomolgus monkey, plasma, sc, 50 nmol/kg, mean, read-out: AUC0-inf",23.3 µM·h
same,CL/F,"[2]; male, cynomolgus monkey, plasma, sc, 50 nmol/kg, mean, read-out: CL/F (converted)",2.16 mL/h/kg
same,Cmax,[2]; [4],244 nM
same,metabolic rate,"DIO mice (C57BL/6); DIO mice, chronic treatment",increased their metabolic rate starting from Week 2
same,Cumulative Heat (Kcal/kg lean mass/3 day),DIO mice (C57BL/6); Day 1 to Day 4,1749 ± 136 Kcal/kg lean mass/3 day
same,Cumulative Heat (Kcal/kg lean mass/3 day),DIO mice (C57BL/6); Day 4 to Day 7,1822 ± 173 Kcal/kg lean mass/3 day
same,Cumulative Heat (Kcal/kg lean mass/3 day),DIO mice (C57BL/6); Day 7 to Day 10,2349 ± 129 Kcal/kg lean mass/3 day
same,Cumulative Heat (Kcal/kg lean mass/3 day),DIO mice (C57BL/6); Day 10 to Day 13,2351 ± 144 Kcal/kg lean mass/3 day
same,Emax,hGLP-1-R,104 ± 7%
same,EC50,hGLP-1-R,23.9 ± 4.5 nM
same,Emax,hGcg-R; percent of maximal response with a Gcg analog conjugated to a saturated C18 fatty acid (diacid),100%
same,EC50,"hGcg-R; primary human hepatocytes, cAMP, 1 hour",99.9 nM
same,cAMP production,"hGcg-R; primary human hepatocytes, data not shown",increased cAMP production in a dose-dependent manner
CC(C)C[C@H](NC(=O)[C@H](CC(C)C)NC(=O)[C@H](Cc1c[nH]c2ccccc12)NC(=O)[C@H](CCC(=O)O)NC(=O)[C@@H](NC(=O)[C@H](Cc1ccccc1)NC(=O)[C@H](CCC(=O)O)NC(=O)[C@H](CCCCNC(=O)COCCOCCNC(=O)COCCOCCNC(=O)CC[C@H](NC(=O)CC[C@H](NC(=O)CCCCCCCCCCCCCCCCC(=O)O)C(=O)O)C(=O)O)NC(=O)[C@H](C)NC(=O)[C@H](CCCCN)NC(=O)[C@H](CCCCN)NC(=O)[C@H](CCC(=O)O)NC(=O)[C@H](CC(=O)O)NC(=O)[C@H](CC(C)C)NC(=O)[C@H](Cc1ccc(O)cc1)NC(=O)[C@H](CCCCN)NC(=O)[C@H](CO)NC(=O)[C@H](Cc1ccc(O)cc1)NC(=O)[C@H](CC(=O)O)NC(=O)[C@H](CO)NC(=O)[C@@H](NC(=O)[C@H](Cc1ccccc1)NC(=O)[C@@H](NC(=O)CNC(=O)[C@H](CCC(N)=O)NC(=O)C(C)(C)NC(=O)[C@@H](N)Cc1c[nH]cn1)[C@@H](C)O)[C@@H](C)O)C(C)C)C(=O)N[C@@H](CO)C(=O)NCC(=O)NCC(=O)N1CCC[C@H]1C(=O)N[C@@H](CO)C(=O)N[C@@H](CO)C(=O)NCC(N)=O [Compound 3] (H-H[Aib]QGTFTSDYSKYLDEKKAK([AEEA-AEEA-γGlu-γGlu-C18 diacid])EFVEWLLSGGPSSG-NH2; N-terminus assumed),500 μL syringe Viscosity,[1],1.03 cP or mPa-s
same,Emax,hGLP-1-R,105 ± 5%
same,EC50,hGLP-1-R,34.3 ± 9.4 nM
